Results: patent US8765748B2, “Indazolyl, benzimidazolyl, benzotriazolyl substituted indolinone derivatives as kinase inhibitors useful in the treatment of cancer” (University Health Network, priority 2007, dated 2014)

What was measured:
Format in all cases: biochemical
human PLK4 = target: T1, human PLK4 (Homo sapiens, UniProt O00444); experiment: PLK4 Inhibition Assay (indirect ELISA); conditions: 15 μM ATP, 4 nM GST-PLK4; read-out: PLK4 IC50 Ranges
T1 construct: amino terminal GST fusion of residues 1-391 of human PLK4; made in house; host or cells: E. coli
T1 sequence (O00444 1-391): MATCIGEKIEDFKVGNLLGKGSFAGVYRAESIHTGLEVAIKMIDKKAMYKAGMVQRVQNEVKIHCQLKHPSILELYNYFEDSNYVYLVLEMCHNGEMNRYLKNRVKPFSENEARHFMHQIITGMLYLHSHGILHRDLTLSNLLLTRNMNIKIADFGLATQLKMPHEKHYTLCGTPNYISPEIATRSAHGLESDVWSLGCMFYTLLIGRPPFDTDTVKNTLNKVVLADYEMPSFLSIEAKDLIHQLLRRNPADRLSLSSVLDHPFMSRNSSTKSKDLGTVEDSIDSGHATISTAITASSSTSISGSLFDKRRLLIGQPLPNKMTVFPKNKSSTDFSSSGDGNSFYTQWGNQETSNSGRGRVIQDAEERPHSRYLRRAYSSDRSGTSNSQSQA
Procedure, shortened: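 IC50 values, from 4-point logistic fitting, reflect remaining activity measured by indirect ELISA. Enzyme was GST-PLK4 treated with lambda phosphatase and given a 15-minute pre-incubation with compound before ATP start.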

PLK1 = target: T2, PLK1 (Homo sapiens, UniProt P53350); experiment: PLK1 Inhibition Assay (Z-Lyte); conditions: for IC50: 25 μM ATP, 8 nM PLK1, read-out: PLK1 IC50 Ranges; for inhibition at 10 µM: 10 μM compound, read-out: PLK1 relative inhibition percentage at a dose of 10 μM
T2 construct: purchased Invitrogen PV3501
Method: PLK1 inhibition was determined using the Z-Lyte assay kit from Invitrogen (cat #PV3802). […] The % inhibition values were determined according to the manufacturer's directions and IC50 values were obtained using a non-linear 4 point logistic curve fit (XLfit4, IDBS)

Aurora B = target: T3, Aurora B (Homo sapiens, UniProt Q96GD4); experiment: Aurora B Inhibition Assay (Z-Lyte); conditions: for inhibition at 10 µM: 10 μM compound, read-out: Aurora B relative inhibition percentage at a dose of 10 μM; for IC50: 128 μM ATP, 28 nM Aurora B, read-out: Aurora B IC50 Ranges
T3 construct: purchased Invitrogen PV3970
Method: (§1) Aurora B inhibition was determined using the Z-Lyte assay kit from Invitrogen. The assay was performed using the recommended manufacturer's instructions with 128 μM ATP and 28 nM Aurora B (Invitrogen cat #PV3970). The % inhibition values were determined according to the manufacturer's directions and IC50 values were obtained using a non-linear 4 point logistic curve fit (XLfit4, IDBS)

PLK2 = target: T4, PLK2 (Homo sapiens, UniProt Q9NYY3); experiment: PLK2 Inhibition Assay (Z-Lyte); conditions: for inhibition at 10 µM: 10 μM compound, read-out: PLK2 relative inhibition percentage at a dose of 10 μM; for IC50: 60 μM ATP, 133 nM PLK2, read-out: PLK2 IC50 Ranges
T4 construct: purchased Invitrogen PV4204
Method: as §1, with “PLK2” for “Aurora B”, “Invitrogen (cat #PV3802).” for “Invitrogen.”, “60” for “128”, “133” for “28”, “#PV4204).” for “#PV3970).”

Aurora A = target: T5, Aurora A (Homo sapiens, UniProt O14965); experiment: Aurora A Inhibition Assay (Z-Lyte); conditions: for inhibition at 10 µM: 10 μM compound, read-out: Aurora A relative inhibition percentage at a dose of 10 μM; for IC50: 20 μM ATP, 12 nM Aurora A, read-out: Aurora A IC50 Ranges
T5 construct: purchased Invitrogen PV3612
T5 sequence (O14965 1-403): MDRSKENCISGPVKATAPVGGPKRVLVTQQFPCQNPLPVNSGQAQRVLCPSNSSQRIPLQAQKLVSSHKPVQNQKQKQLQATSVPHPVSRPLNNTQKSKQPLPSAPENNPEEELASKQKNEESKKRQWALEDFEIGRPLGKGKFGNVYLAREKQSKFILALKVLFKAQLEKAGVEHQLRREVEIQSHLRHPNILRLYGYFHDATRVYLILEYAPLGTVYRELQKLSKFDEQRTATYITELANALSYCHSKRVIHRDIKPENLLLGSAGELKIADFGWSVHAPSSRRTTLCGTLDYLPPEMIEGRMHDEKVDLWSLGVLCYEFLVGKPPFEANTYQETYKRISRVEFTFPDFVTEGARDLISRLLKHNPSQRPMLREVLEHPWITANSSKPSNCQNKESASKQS
Method: as §1, with “Aurora A” for “Aurora B”, “with 20” for “with 128”, “and 12” for “and 28”, “cat #PV3612).” for “cat #PV3970).”

T2 sequence (P53350 whole entry): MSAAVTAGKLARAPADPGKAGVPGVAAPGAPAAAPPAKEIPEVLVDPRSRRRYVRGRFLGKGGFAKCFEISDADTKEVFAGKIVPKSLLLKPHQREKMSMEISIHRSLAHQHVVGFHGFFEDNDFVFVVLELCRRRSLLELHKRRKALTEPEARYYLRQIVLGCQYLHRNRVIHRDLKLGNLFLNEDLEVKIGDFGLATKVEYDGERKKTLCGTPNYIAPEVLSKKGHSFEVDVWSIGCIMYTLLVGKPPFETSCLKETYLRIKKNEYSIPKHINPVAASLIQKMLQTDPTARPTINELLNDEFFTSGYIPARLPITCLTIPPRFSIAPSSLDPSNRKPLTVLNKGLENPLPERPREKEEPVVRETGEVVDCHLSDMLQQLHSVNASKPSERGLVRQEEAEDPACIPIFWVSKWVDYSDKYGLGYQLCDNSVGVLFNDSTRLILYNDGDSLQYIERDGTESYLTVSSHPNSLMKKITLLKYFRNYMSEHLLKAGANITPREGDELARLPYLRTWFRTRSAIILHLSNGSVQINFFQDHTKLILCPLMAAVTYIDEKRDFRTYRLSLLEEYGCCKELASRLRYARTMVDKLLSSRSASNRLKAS
T3 sequence (Q96GD4 whole entry): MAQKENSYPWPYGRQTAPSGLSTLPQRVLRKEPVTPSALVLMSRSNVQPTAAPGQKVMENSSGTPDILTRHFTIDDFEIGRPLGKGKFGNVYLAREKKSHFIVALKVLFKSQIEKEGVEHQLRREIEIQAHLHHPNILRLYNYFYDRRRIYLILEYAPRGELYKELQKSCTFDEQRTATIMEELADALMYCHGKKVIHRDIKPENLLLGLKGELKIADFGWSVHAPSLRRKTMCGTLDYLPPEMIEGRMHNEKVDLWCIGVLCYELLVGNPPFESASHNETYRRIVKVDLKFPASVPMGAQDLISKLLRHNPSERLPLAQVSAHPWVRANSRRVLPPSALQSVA
T4 sequence (Q9NYY3 whole entry): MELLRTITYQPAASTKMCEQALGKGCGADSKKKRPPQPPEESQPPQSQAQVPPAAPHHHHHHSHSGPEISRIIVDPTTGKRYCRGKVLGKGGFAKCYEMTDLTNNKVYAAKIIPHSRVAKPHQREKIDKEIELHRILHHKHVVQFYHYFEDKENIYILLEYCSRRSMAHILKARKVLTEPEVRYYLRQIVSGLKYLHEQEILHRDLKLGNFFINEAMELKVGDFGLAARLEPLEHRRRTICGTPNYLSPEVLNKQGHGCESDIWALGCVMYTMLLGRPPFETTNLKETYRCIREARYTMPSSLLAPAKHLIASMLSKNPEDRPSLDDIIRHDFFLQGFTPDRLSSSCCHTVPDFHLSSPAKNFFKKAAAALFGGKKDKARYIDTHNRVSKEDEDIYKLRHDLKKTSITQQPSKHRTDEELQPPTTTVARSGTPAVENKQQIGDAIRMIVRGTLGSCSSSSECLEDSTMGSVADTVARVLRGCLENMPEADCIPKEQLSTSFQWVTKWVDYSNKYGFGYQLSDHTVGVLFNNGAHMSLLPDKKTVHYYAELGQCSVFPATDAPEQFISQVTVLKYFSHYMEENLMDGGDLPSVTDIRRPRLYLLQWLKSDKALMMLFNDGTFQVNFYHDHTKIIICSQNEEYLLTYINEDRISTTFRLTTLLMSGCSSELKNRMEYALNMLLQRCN

Row | Compound | IC50 (human PLK4) | IC50 (PLK1) | inhibition at 10 µM (Aurora B) | inhibition at 10 µM (PLK2) | inhibition at 10 µM (Aurora A) | IC50 (Aurora B) | IC50 (PLK2) | IC50 (Aurora A) | inhibition at 10 µM (PLK1)
1 | CC(=O)Nc1ccc2c(c1)NC(=O)/C2=C/c1ccc2cn[nH]c2c1 [Example A13, (E)-N-(3-((1H-indazol-6-yl)methylene)-2-oxoindolin-6-yl)acetamide] | < 5 µM | 5 to 50 µM | < 50% | < 50% | > 50% |  |  |  | 
2 | CC(=O)Nc1ccc2c(c1)/C(=C\c1ccc3cn[nH]c3c1)C(=O)N2 [Example A22, (E)-N-(3-((1H-indazol-6-yl)methylene)-2-oxoindolin-5-yl)acetamide] | < 5 µM | 5 to 50 µM |  | > 50% | > 50% | 5 to 50 µM |  |  | 
3 | O=C1Nc2ccc(Br)cc2/C1=C\c1ccc2cn[nH]c2c1 [Example A35, (E)-3-((1H-indazol-6-yl)methylene)-5-bromoindolin-2-one] | < 5 µM | > 50 µM |  | < 50% | < 50% | < 5 µM |  |  | 
4 | O=C1Nc2cc(Cl)ccc2/C1=C\c1ccc2cn[nH]c2c1 [Example A36, (E)-3-((1H-indazol-6-yl)methylene)-6-chloroindolin-2-one] | < 5 µM | 5 to 50 µM |  | < 50% |  | < 5 µM |  | > 50 µM | 
5 | CC(C)(C)OC(=O)Nc1ccc2c(c1)NC(=O)/C2=C/c1ccc2cn[nH]c2c1 [Example A37, (E)-tert-butyl 3-((1H-indazol-6-yl)methylene)-2-oxoindolin-6-ylcarbamate] | 5 to 50 µM | > 50 µM |  |  | < 50% | < 5 µM | > 50 µM |  | 
6 | O=C1Nc2c(F)cccc2/C1=C\c1ccc2cn[nH]c2c1 [Example A42, (E)-3-((1H-indazol-6-yl)methylene)-7-fluoroindolin-2-one] | < 5 µM | > 50 µM |  | > 50% |  | < 5 µM |  | < 5 µM | 
7 | O=C1Nc2c(Cl)cccc2/C1=C\c1ccc2cn[nH]c2c1 [Example A43, (E)-3-((1H-indazol-6-yl)methylene)-7-chloroindolin-2-one] | < 5 µM | > 50 µM |  | > 50% |  | < 5 µM |  | 5 to 50 µM | 
8 | O=C1Nc2ccc(Br)cc2/C1=C\c1ccc2c(/C=C/c3ccncc3)n[nH]c2c1 [Example A62, (E)-5-bromo-3-((3-((E)-2-(pyridin-4-yl)vinyl)-1H-indazol-6-yl)-methylene)indolin-2-one] | < 5 µM |  |  | < 50% |  | < 5 µM |  | < 5 µM | < 50%
9 | O=C1Nc2ccc(Cl)cc2/C1=C\c1ccc2cn[nH]c2c1 [Example A80, (E)-3-((1H-indazol-6-yl)methylene)-5-chloroindolin-2-one] | < 5 µM |  |  | < 50% |  | < 5 µM |  | < 5 µM | < 50%
10 | O=C1Nc2ncccc2/C1=C\c1ccc2c(/C=C/c3ccncc3)n[nH]c2c1 [Example A101, (E)-3-((3-((E)-2-(pyridin-4-yl)vinyl)-1H-indazol-6-yl)methylene)-1H-pyrrolo[2,3-b]pyridin-2(3H)-one] | < 5 µM |  |  | < 50% | > 50% | < 5 µM |  |  | < 50%
11 | COc1ccc2c(c1)/C(=C\c1ccc3c(-c4ccc(N5CCOCC5)nc4)n[nH]c3c1)C(=O)N2 [Example A112, (E)-5-methoxy-3-((3-(6-morpholinopyridin-3-yl)-1H-indazol-6-yl)-methylene)indolin-2-one] | < 5 µM |  |  | < 50% |  | < 5 µM |  | < 5 µM | < 50%

Results, then the molecule that gave them:

Row | IC50 (human PLK4) | IC50 (PLK1) | inhibition at 10 µM (Aurora B) | inhibition at 10 µM (PLK2) | inhibition at 10 µM (Aurora A) | IC50 (Aurora B) | IC50 (PLK2) | IC50 (Aurora A) | inhibition at 10 µM (PLK1) | Compound
12 | < 5 µM | 5 to 50 µM |  |  |  | < 5 µM | < 5 µM | < 5 µM |  | O=C1Nc2ccc(F)cc2/C1=C\c1ccc2cn[nH]c2c1 [Example A16, (E)-3-((1H-indazol-6-yl)methylene)-5-fluoroindolin-2-one]
13 | < 5 µM | 5 to 50 µM |  | < 50% |  | < 5 µM |  | 5 to 50 µM |  | Nc1ccc2c(c1)NC(=O)/C2=C/c1ccc2cn[nH]c2c1 [Example A38, (E)-3-((1H-indazol-6-yl)methylene)-2-oxoindolin-6-aminium 2,2,2-trifluoroacetate]
14 | < 5 µM | > 50 µM |  | > 50% | > 50% | < 5 µM |  |  |  | O=C1Nc2ccccc2/C1=C\c1cc(-c2ccncc2)c2cn[nH]c2c1 [Example A54a, (E)-3-((4-(pyridin-4-yl)-1H-indazol-6-yl)methylene)indolin-2-one]
15 | < 5 µM | > 50 µM |  |  |  | < 5 µM | < 5 µM | < 5 µM |  | Nc1cccc2c1NC(=O)/C2=C/c1ccc2cn[nH]c2c1 [Example A56, (E)-3-((1H-indazol-6-yl)methylene)-7-aminoindolin-2-one]
16 | < 5 µM |  |  | < 50% |  | < 5 µM |  | < 5 µM | < 50% | O=C1Nc2ccccc2/C1=C\c1ccc2c(/C=C/c3ccccc3)n[nH]c2c1 [Example A58, (E)-3-((E)-(3-styryl-1H-indazol-6-yl)methylene)indolin-2-one]
17 | < 5 µM |  |  | < 50% |  | < 5 µM |  | < 5 µM | < 50% | COC(=O)/C=C/c1n[nH]c2cc(/C=C3/C(=O)Nc4ccccc43)ccc12 [Example A61, (E)-methyl 3-(6-((E)-(2-oxoindolin-3-ylidene)methyl)-1H-indazol-3-yl)acrylate]
18 | < 5 µM |  | > 50% | > 50% | > 50% |  |  |  | > 50% | O=C1Nc2ncccc2/C1=C\c1ccc2cn[nH]c2c1 [Example A67, (E)-3-((1H-indazol-6-yl)methylene)-1H-pyrrolo[2,3-b]pyridin-2(3H)-one]
19 | < 5 µM |  |  | < 50% | > 50% | < 5 µM |  |  | < 50% | O=C1Nc2ncccc2/C1=C\c1ccc2c(/C=C/c3ccccn3)n[nH]c2c1 [Example A72, (E)-3-((3-((E)-2-(pyridin-2-yl)vinyl)-1H-indazol-6-yl)methylene)-1H-pyrrolo[2,3-b]pyridin-2(3H)-one]
20 | < 5 µM |  |  | < 50% |  | < 5 µM |  | < 5 µM | < 50% | Cc1ccc2c(c1)/C(=C\c1ccc3c(/C=C/c4ccncc4)n[nH]c3c1)C(=O)N2 [Example A85, (E)-5-methyl-3-((3-((E)-2-(pyridin-4-yl)vinyl)-1H-indazol-6-yl)methylene)indolin-2-one]
21 | < 5 µM |  |  | < 50% | > 50% | < 5 µM |  |  | < 50% | COc1ccc2c(c1)/C(=C\c1ccc3c(/C=C/c4ccncc4)n[nH]c3c1)C(=O)N2 [Example A86, (E)-5-methoxy-3-((3-((E)-2-(pyridin-4-yl)vinyl)-1H-indazol-6-yl)methylene)indolin-2-one]
